The values below come from ChEMBL document CHEMBL4414671, “Antinociceptive Grayanane Diterpenoids from the Leaves of Pieris japonica” (2019).

The first test concerns Mus musculus. The experiment in a line: Antinociceptive activity in mouse as reduction in acetic acid-induced writhes at 0.04 mg/kg,ip relative to control. The test is classed as functional.
As a reminder, the inhibition in vivo is the share of the control response that was lost under treatment. High values mean a strong effect, low ones a weak effect. As to `CC1(C)[C@@H](O)[C@H](O)[C@H]2[C@](C)(O)[C@@H]3CC[C@@H]4[C@@H](O)[C@@]3(C[C@@H](O)[C@@]21O)C[C@@]4(C)O`, at 0.04 mg/kg the inhibition in vivo was 88.7%.
On to `CO[C@H]1[C@H](O)C(C)(C)[C@@]2(O)[C@H](O)C[C@]34C[C@@](C)(O)[C@H](CC[C@H]3[C@@](C)(O)[C@H]12)[C@H]4O`, for which 0.04 mg/kg produced 59.1% inhibition in vivo.
Still for that read-out and setting: next, `C=C1[C@@H]2CC[C@@H]3C[C@]2(C=C3CO)C[C@@H](O)[C@@]2(O)[C@H]1C[C@H](O)C2(C)C`: 56.3%.
`CC1=C[C@@]23C[C@@H](O)[C@@]4(O)[C@@H]([C@@H](O)[C@H](O)C4(C)C)[C@](C)(O)[C@@H]2CC[C@@H]1[C@H]3O` had an inhibition in vivo at 0.04 mg/kg of 61.9%.

The next test deals with Mus musculus. The experiment in a line: Antinociceptive activity in mouse as reduction in acetic acid-induced writhes at 0.2 mg/kg, ip relative to control. The test is classed as functional.
As for `C=C1[C@@H]2CC[C@@H]3C[C@@]2(C[C@@H](O)[C@@]2(O)[C@H]1CC(=O)C2(C)C)C[C@@]3(C)O`, testing at 0.2 mg/kg gave an inhibition in vivo of 59.1%.

For a further test, the system named is Mus musculus. Nature of the test: Antinociceptive activity in mouse as reduction in acetic acid-induced writhes at 1 mg/kg, ip relative to control. The test is classed as functional.
Consider `C=C1[C@@H]2CC[C@@H]3C[C@@]2(C[C@@H](O)[C@@]2(O)[C@H]1CC(=O)C2(C)C)C[C@@]3(C)O`, for which the inhibition in vivo at 1 mg/kg stood at 76.3%.

A further test deals with Mus musculus. Nature of the test: Antinociceptive activity in mouse as reduction in acetic acid-induced writhes at 5 mg/kg, ip relative to control. The test is classed as functional.
Turning to `C=C1[C@@H]2CC[C@@H]3C[C@@]2(C[C@@H](O)[C@@]2(O)[C@@H]1[C@H](O)[C@H](O)C2(C)C)C[C@@]3(C)O`, the inhibition in vivo at 5 mg/kg was greater than 50%.
In turn, `C=C1[C@@H]2[C@@H](OC)[C@H](O)C(C)(C)[C@@]2(O)[C@H](O)C[C@]23C[C@@](C)(O)[C@H](CC[C@@H]12)[C@H]3O` registered an inhibition in vivo at 5 mg/kg greater than 50%.
As to `C=C1[C@@H]2C[C@@H](O)[C@@H]3C[C@@]2(C[C@@H](O)[C@@]2(O)[C@H]1C[C@H](O)C2(C)C)C[C@@]3(C)O`, the inhibition in vivo at 5 mg/kg was greater than 50%.
For the compound `C=C1[C@@H]2CC[C@@H]3C[C@@]2(C[C@@H](O)[C@@]2(O)[C@H]1C[C@H](O)C2(C)C)C[C@@]3(C)OC`, the inhibition in vivo at 5 mg/kg is greater than 50%.
The same measure, in the same setting: next, `C=C1[C@@H]2[C@@H](O)[C@H](O)C(C)(C)[C@@]2(O)[C@H](O)C[C@]23C=C(C)[C@H](CC[C@@H]12)[C@H]3O`: greater than 50%.
The compound `CC1=C2CC[C@@H]3C[C@@]2(C[C@@H](O)[C@@]2(O)[C@H]1C[C@H](O)C2(C)C)C[C@@]3(C)O` gave an inhibition in vivo at 5 mg/kg greater than 50%.
Take `C=C1[C@@H]2[C@@H](OC)[C@H](O)C(C)(C)[C@@]2(O)[C@H](O)C[C@]23C[C@@](C)(O)[C@H](CC[C@@H]12)[C@H]3OC(=O)C(C)O` (stereo partly specified): the inhibition in vivo at 5 mg/kg was greater than 50%.
As to `CC1(C)[C@@H](O)C[C@@H]2[C@@](C)(O)[C@@H]3CC[C@]4(O)C[C@@]3(C[C@@H](O)[C@@]21O)C[C@@]4(C)O`, the inhibition in vivo at 5 mg/kg is greater than 50%.
`C=C1[C@@H]2CC[C@@H]3C[C@@]2(C[C@@H](O)[C@@]2(O)[C@H]1CC(=O)C2(C)C)C[C@@]3(C)O` registered an inhibition in vivo at 5 mg/kg of 87.3%.
As for `C=C1[C@@H]2[C@@H](O)[C@H](O)C(C)(C)[C@@]2(O)[C@H](O)C[C@]23C[C@@](C)(O)[C@H](CC[C@@H]12)[C@H]3OC(=O)CC`, the inhibition in vivo at 5 mg/kg was greater than 50%.
On to `C=C1C2=C([C@H](O)C[C@@]34C[C@@H](CC[C@@H]13)[C@](C)(O)C4)C(C)(C)[C@@H](O)[C@H]2O`, for which the inhibition in vivo at 5 mg/kg is greater than 50%.
The same measure, in the same setting: next, `C=C1[C@@H]2CC[C@@H]3C[C@@]2(C[C@@H](O)[C@@]2(O)[C@H]1C[C@H](O)C2(C)C)C[C@@]3(C)O`: greater than 50%.
On the same count and under the same terms, next, `C=C1[C@@H]2CC[C@@H]3[C@@H](O)[C@@]2(C[C@@H](O)[C@@]2(O)[C@H]1C[C@H](O)C2(C)C)C[C@@]3(C)O`: greater than 50%; `C=C1[C@H]2C[C@H](O)C(C)(C)[C@]2(O)CC[C@@]23C[C@@H](CC[C@@H]12)[C@@](O)(CO)C3`: greater than 50%.
`C=C1[C@@H]2CC[C@@H]3[C@@H](OC(=O)CC)[C@@]2(C[C@@H](O)[C@@]2(O)[C@H]1C[C@H](O)C2(C)C)C[C@@]3(C)O` registered an inhibition in vivo at 5 mg/kg greater than 50%.
Compound `C=C1[C@@H]2CC[C@H]3C(C)=C[C@]2(C[C@@H](O)[C@@]2(O)[C@H]1C[C@H](O)C2(C)C)[C@@H]3O` registered an inhibition in vivo at 5 mg/kg greater than 50%.
The compound `C=C1[C@@H]2[C@H](O)[C@H](O)C(C)(C)[C@@]2(O)[C@H](O)C[C@]23C[C@@](C)(O)[C@H](CC[C@@H]12)[C@H]3O` showed an inhibition in vivo at 5 mg/kg greater than 50%.
In turn, `CC1=C2C[C@H](O)C(C)(C)[C@]23O[C@]12CC[C@@H]1C[C@@]2(C[C@H]3O)C[C@@]1(C)O` came in with an inhibition in vivo at 5 mg/kg greater than 50%.
`C=C1[C@@H]2[C@@H](OC)[C@H](O)C(C)(C)[C@@]2(O)[C@H](O)C[C@]23C=C(C)[C@H](CC[C@@H]12)[C@H]3O` yielded an inhibition in vivo at 5 mg/kg greater than 50%.

In the next test the test system is Mus musculus. The experiment in a line: Antinociceptive activity in mouse as reduction in acetic acid-induced writhes at 0.2 to 1 mg/kg, ip relative to control. The test is classed as functional.
On to `CC1=C2CC[C@@H]3[C@@H](O)[C@@]2(C[C@@H](O)[C@@]2(O)[C@H]1[C@@H](O)[C@H](O)C2(C)C)C[C@@]3(C)O`, for which the “inhibition (INH)” value is on record as greater than 50%.
